{"source": "patent US20120220594A1", "about": "“METHODS FOR TREATING CANCER IN PATIENTS HAVING IGF-1R INHIBITOR RESISTANCE” (Bristol-Meyers Squibb Company, priority 2009, published 2012)", "test_system": "Rh41-807R cells", "settings": "1:1 ratio, Combination Index less than 1 indicates synergy", "text": "A dilution of ratios drug combination method was used in cellular proliferation assays to test the IC50 values of single agent (A or B) as well as in combination (a or b). […] Combination Index=(a/A+b/B)."}
{"smiles": "Cc1ccc(NC(=O)c2ccc(CN3CCN(C)CC3)cc2)cc1Nc1nccc(-c2cccnc2)n1", "note": "[imatinib]", "values": [{"measurement": "activity in growth inhibition in combination with BMS-754807", "value": "synergistic activity"}]}
